Results reported in US9723838B2, “Pyrazolyl amide compounds and uses thereof” (SHENYANG SINOCHEM AGROCHEMICALS R&D CO., LTD., priority 2013, dated 2017).
Read-outs that look alike come from different tables or passages of the source.

Experiments:
green peach aphid = test: Test against green peach aphid (spraying); type: in vivo; details: for mortality at 2.5 ppm / mortality at 5 ppm / mortality at 10 ppm / mortality at 100 ppm / mortality at 600 ppm: Myzus persicae; for mortality at 100 ppm / mortality at 600 ppm: read-out: mortality against green peach aphid; for Mortality (%): parallel test
Protocol: According to the solubility of test compounds, the compounds are dissolved in acetone or dimethyl sulfoxide, and then diluted with 0.1% aqueous solution of Tween 80 to form the test liquid 50 ml, the content of acetone or dimethyl sulfoxide in the total solution is not more than 10%.
The 6 cm diameter Petri dish with a layer of filter paper was chosen, a moderate amount of water was added to preserve moisture. A suitable piece of cabbage leaf with 30-50 green peach aphids was excised from a culture plant. Remove the winged and positive aphids, the leaf was placed to the Petri dish above with back upward. The test compounds were sprayed on both sides of the leaf by Airbrush (spray pressure: 10 psi, equate to 0.7 kg/cm^2; spray volume: 0.5 mL; spray distance: 15-20 cm). The treated Petri dishes were placed in a chamber of 23-25° C., 40%-60% relative humidity, L/D 13 h: 11 h. To keep the leaf fresh, a moderate amount of water was added to the Petri dish during the observation. After 48 h, the number of surviving insects was investigated and the mortality rates were calculated.

armyworm = details: disclosed in CN1653051A; cited from earlier work
diamondback moth = test: Test against diamondback moth (leaf disc spraying); type: in vivo; details: for mortality at 0.156 ppm / mortality at 0.313 ppm / mortality at 0.63 ppm / mortality at 10 ppm / mortality at 100 ppm: Plutella xylostella, foliar; for mortality at 10 ppm / mortality at 100 ppm: read-out: mortality against diamondback moth; for Mortality (%): parallel test
Description: The test method is spraying. The leaves of cabbage grown in greenhouse were chosen, removed the surface waxy layer and perforated to get 3 cm diameter leaf discs by the hole puncher. The test compounds were sprayed on both sides of the discs by Airbrush according to the designed concentration from low to high dose. The cabbage discs were placed in 6 cm diameter Petri dish with filter paper. Tentest insects (3 instar) were introduced on each treatment after drying. Each treatment set the pure water as CK. The treated discs were placed in a certain condition. After 72 h, the number of surviving insects was investigated and the mortality rates were calculated.

diamond back moth = details: disclosed in CN1653051A; cited from earlier work
army worm = test: Test against army worm (corn leaf spraying); type: in vivo; details: for Mortality (%): parallel test
Protocol: The test method is spraying. The middle part of fresh corn leaves were chosen and cut into 3 cm sects. The test compounds were sprayed on both sides of the sects by Airbrush according to the designed concentration from low to high dose. The sects were placed in 6 cm diameter Petri dish with filter paper. Ten test insects (3 instar) were introduced on each treatment after drying. Each treatment set the pure water as CK. The treated sects were placed in a certain condition. After 72 h, the number of surviving insects was investigated and the mortality rates were calculated.

cabbage aphids = test: Field test against cabbage aphids; type: in vivo
Protocol: The test was carried out in the institute of Vegetables and Flowers Chinese Academy of Agriculture Sciences Nankou base, using cabbages (JINGFENG) as the test plant. The test compounds dosage were 15 g a.i./hm^2 and 10% Cyantraniliprole SC dosage was 30 g a.i./hm^2 which were sprayed evenly to the whole plant using backpack manual sprayer (“MATABI” SUPER GREEN 16) at the spray volume of 750 L/hm^2. Each treatment repeated 4 times, arranged with randomized blocks. 5 spots were chosen from each area using diagonal method, each spot contains 2 cabbages, the 10 cabbages above were investigated in the area. The number of initial cabbage aphids was investigated before spraying. After 1 day, 3 days, 7 days, 14 days, the number of surviving aphids was investigated respectively and the control efficiency were calculated. decline ratio of insect (%)=(insect number before pesticide application−insect number after pesticide application)/(insect number before pesticide application)×100% control efficiency (%)=(treatment area decline ratio of insect−CK area decline ratio of insect)/(100−CK area decline ratio of insect)×100% Calculation Method:
10% Cyantraniliprole SC was bought from DuPont Agricultural Chemicals Ltd., Shanghai.

black bean aphid = test: Test of absorption activity (horsebean seedling, solution poured into cup); type: in vivo; details: Aphis fabae, after 48 h; for mortality at 0.625 µg/mL: 0.625 mg/L; for mortality at 2.5 µg/mL: 2.5 mg/L; for mortality at 10 µg/mL: 10 mg/L
Protocol: The 3 cm horsebean seedling that pre-infested by a certain number of black bean aphids (2 days instar) was chosen and transplanted to a paper cup loaded with fine sand. According to the test, the test compounds were treated to a solution and poured into the cup. After 48 h, the number of surviving insects was investigated and the mortality rates were calculated.

apple tree aphids = test: Field test against apple tree aphids; type: in vivo; details: for mortality at 25 µg/mL: dose 25 mg/L; for mortality at 50 µg/mL: dose 50 mg/L
Protocol: The test was carried out in the institute of pomology of CAAS orchard in June 2014, using starkrimson as the test sample, the apple tree aphids were in preliminary stage. The test method is spraying using the stretcher power sprayer (ZL-22-160), each treatment repeated 4 times. The number of initial aphids was investigated before spraying. After 2 days, 7 days, 14 days, the number of surviving aphids was investigated respectively and the control efficiency were calculated. 10% Cyantraniliprole SC was commercial available which was bought from DuPont Agricultural Chemicals Ltd., Shanghai.

[1] = 72 h, read-out: mortality against army worm
[2] = 10 ppm, spraying, after 72 h, read-out: mortality against army worm
[3] = 100 ppm, spraying, after 72 h, read-out: mortality against army worm

SMILES	mortality at 2.5 ppm (green peach aphid; 48 h) [%]	mortality at 5 ppm (green peach aphid; 48 h) [%]	mortality at 10 ppm (green peach aphid; 48 h) [%]	mortality at 0.156 ppm (diamondback moth; 72 h) [%]	mortality at 0.313 ppm (diamondback moth; 72 h) [%]	mortality at 0.63 ppm (diamondback moth; 72 h) [%]	mortality at 2.5 ppm (army worm; 72 h) [%]	mortality at 5 ppm (army worm; 72 h) [%]	mortality at 10 ppm (army worm; 72 h) [%]	mortality at 100 ppm (green peach aphid; 48 h) [%]	mortality at 600 ppm (green peach aphid; 48 h) [%]	mortality at 10 ppm (diamondback moth; 72 h) [%]	mortality at 100 ppm (diamondback moth; 72 h) [%]	mortality at 100 ppm (army worm; [1]) [%]	mortality at 600 ppm (green peach aphid; 600 ppm, spraying, after 48 h) [%]	mortality at 10 ppm (diamondback moth; 10 ppm, spraying, after 72 h) [%]	mortality at 100 ppm (diamondback moth; 100 ppm, spraying, after 72 h) [%]	mortality at 10 ppm (army worm; [2]) [%]	mortality at 100 ppm (army worm; [3]) [%]	mortality at 0.625 µg/mL (black bean aphid) [%]	other results
CC(NC(=O)c1cc(Br)cc(Br)c1NC(=O)c1cc(Br)nn1-c1ncccc1Cl)C(N)=O (stereo not shown) [KC1, reference compound]	0	0	15.1	0	20	33.3	0	0	18												insecticidal activity against armyworm (armyworm): high activity; insecticidal activity against diamond back moth (diamond back moth): high activity
CC(C)(NC(=O)c1cc(Br)cc(Br)c1NC(=O)c1cc(Br)nn1-c1ncccc1Cl)C(N)=O [Compound 1.10]	100	100	100	62.5	81.3	100	62.5	87.5	100	≥ 80	≥ 80	≥ 80	≥ 80	≥ 80							
CC1(C)N=C(c2cc(Br)cc(Br)c2NC(=O)c2cc(Br)nn2-c2ncccc2Cl)NC1=O [Compound 1.27]															≥ 80	≥ 80	≥ 80	≥ 80	≥ 80		mortality at 100 ppm (green peach aphid; 100 ppm, spraying, after 48 h): ≥ 80%
CC1(C)N=C(c2cc(Cl)cc(Cl)c2NC(=O)c2cc(Cl)nn2-c2ncccc2Cl)NC1=O [Compound 1.20]															≥ 80	≥ 80	≥ 80	≥ 80	≥ 80		mortality at 100 ppm (green peach aphid; 100 ppm, spraying, after 48 h): ≥ 80%
CC(C)(NC(=O)c1cc(Cl)cc(Cl)c1NC(=O)c1cc(Cl)nn1-c1ncccc1Cl)C(N)=O [Compound 1.3]	100	100	100	87.5	100	100	64.3	81.2	100	≥ 80	≥ 80	≥ 80	≥ 80	≥ 80						100	Mortality (%) (cabbage aphids; dose 15 g a.i./hm^2, 1 d): 80.78 c %; Mortality (%) (cabbage aphids; dose 15 g a.i./hm^2, 3 d): 87.22 b %; Mortality (%) (cabbage aphids; dose 15 g a.i./hm^2, 7 d): 92.57 ab %; Mortality (%) (cabbage aphids; dose 15 g a.i./hm^2, 14 d): 91.77 ab %; mortality at 10 ppm (army worm; [1]): ≥ 80%; mortality at 2.5 µg/mL (black bean aphid): 100%; mortality at 10 µg/mL (black bean aphid): 100%; mortality at 25 µg/mL (apple tree aphids; 48 h, 2 day): 78.9%; mortality at 50 µg/mL (apple tree aphids; 48 h, 2 day): 83.5%; mortality at 25 µg/mL (apple tree aphids; 168 h, 7 day): 93.5%; mortality at 50 µg/mL (apple tree aphids; 168 h, 7 day): 96.1%; mortality at 25 µg/mL (apple tree aphids; 336 h, 14 day): 93.1%; mortality at 50 µg/mL (apple tree aphids; 336 h, 14 day): 96.7%
CNC(=O)c1cc(C#N)cc(C)c1NC(=O)c1cc(Br)nn1-c1ncccc1Cl [Cyantraniliprole, reference compound]																				30	mortality at 2.5 µg/mL (black bean aphid): 54.6%; mortality at 10 µg/mL (black bean aphid): 100%
CC(C)(NC(=O)c1cc(Cl)cc(Cl)c1NC(=O)c1cc(Br)nn1-c1ncccc1Cl)C(N)=O [Compound 1.4]	90.1	100	100	100	100	100	50	86.6	92.8	≥ 80	≥ 80	≥ 80	≥ 80	≥ 80						100	Mortality (%) (cabbage aphids; dose 15 g a.i./hm^2, 1 d): 84.40 abc %; Mortality (%) (cabbage aphids; dose 15 g a.i./hm^2, 3 d): 91.03 ab %; Mortality (%) (cabbage aphids; dose 15 g a.i./hm^2, 7 d): 95.58 ab %; Mortality (%) (cabbage aphids; dose 15 g a.i./hm^2, 14 d): 91.79 ab %; mortality at 10 ppm (army worm; [1]): ≥ 80%; mortality at 2.5 µg/mL (black bean aphid): 100%; mortality at 10 µg/mL (black bean aphid): 100%
CC(NC(=O)c1cc(F)cc(Cl)c1NC(=O)c1cc(Br)nn1-c1ncccc1Cl)C(N)=O (stereo not shown) [KC2, reference compound]	0	57.6	70.4	30	45.8	63.2	0	16.7	61.6												insecticidal activity against armyworm (armyworm): high activity; insecticidal activity against diamond back moth (diamond back moth): high activity
CC1(C)N=C(c2cc(Cl)cc(Cl)c2NC(=O)c2cc(Br)nn2-c2ncccc2Cl)NC1=O [Compound 1.21]															≥ 80	≥ 80	≥ 80	≥ 80	≥ 80		
CC(C)(NC(=O)c1cc(F)cc(Cl)c1NC(=O)c1cc(Br)nn1-c1ncccc1Cl)C(N)=O [Compound 1.8]																					Mortality (%) (green peach aphid; 2.5 ppm, after 48 h): 89.3%; Mortality (%) (green peach aphid; 5 ppm, after 48 h): 100.0%; Mortality (%) (green peach aphid; 10 ppm, after 48 h): 100.0%; Mortality (%) (diamondback moth; 0.156 ppm, after 72 h): 52.1%; Mortality (%) (diamondback moth; 0.313 ppm, after 72 h): 75%; Mortality (%) (diamondback moth; 0.63 ppm, after 72 h): 100%; Mortality (%) (army worm; 2.5 ppm, after 72 h): 43.7%; Mortality (%) (army worm; 5 ppm, after 72 h): 50.0%; Mortality (%) (army worm; 10 ppm, after 72 h): 100%
